System: MDA-MB-231
Format: cell-based, human
Conditions: anisomycin stimulation

Cc1ccc(-n2nc(C(C)(C)C)cc2NC(=O)Nc2ccc(OCCN3CCOCC3)c3ccccc23)cc1 [BIRB-796]
level of phosphorylated/activated p38: reduces in the overall level of phosphorylated p38 | phosphorylation status of SAPK/JNK: reduces the phosphorylation of JNK

— article PMC7480010 (Journal of biomolecular screening, 2015)
